Measured values reported in patent US20190105367A1, “ANTIMICROBIAL 4-OXOQUINOLIZINES” (Emergent Product Development Gaithersburg Inc., priority 2011, published 2019).
Converted amounts (≈) assume the structure as drawn. Read-outs that look alike come from different tables or passages of the source.

Legend:
A. baumannii A489 [1] = test: Preliminary MBC without and with sub-inhibitory polymyxin B (Example 4); format: cell-based, Acinetobacter baumannii; conditions: Acinetobacter baumannii, preliminary MBC
A. baumannii A472 [2] = test: as above; format: cell-based, Acinetobacter baumannii; conditions: Acinetobacter baumannii, preliminary MBC
A. baumannii A14 [3] = test: as above; format: cell-based, Acinetobacter baumannii; conditions: A. baumannii A14; +0.06 μg/ml polymyxin B; preliminary MBC; 1st experiment
A. baumannii A401 [4] = test: MIC without and with sub-inhibitory polymyxin B (Example 4); format: cell-based, Acinetobacter baumannii; conditions: for MIC: Acinetobacter baumannii
A. baumannii A329 [5] = test: as above; format: cell-based, Acinetobacter baumannii; conditions: A. baumannii A329; +0.06 μg/ml PB; 2nd experiment
A. baumannii NCTC 13301 [6] = test: as above; format: cell-based, Acinetobacter baumannii; conditions: +[…] PB, 2nd experiment
A. baumannii A489 [7] = test: as above; format: cell-based, Acinetobacter baumannii; conditions: for MIC without PB/MIC + PB: A. baumannii A489; for MIC: Acinetobacter baumannii
A. baumannii A472 [8] = test: as above; format: cell-based, Acinetobacter baumannii; conditions: for MIC: Acinetobacter baumannii
A. baumannii A14 [9] = test: as above; format: cell-based, Acinetobacter baumannii; conditions: 2nd experiment
A. baumannii J2 [10] = test: as above; format: cell-based, Acinetobacter baumannii; conditions: for MIC without PB/MIC + PB: A. baumannii J2; for MIC: Acinetobacter baumannii
[11] = tested on: Acinetobacter sp. (H064200250); test: as above; format: cell-based; conditions: for MIC: Acinetobacter
A. baumannii NCTC 13301 [12] = test: as above; format: cell-based, Acinetobacter baumannii
A. baumannii A401 [13] = test: Preliminary MBC without and with sub-inhibitory polymyxin B (Example 4); format: cell-based, Acinetobacter baumannii; conditions: Acinetobacter baumannii
A. baumannii A329 [14] = test: as above; format: cell-based, Acinetobacter baumannii; conditions: Acinetobacter baumannii, A329, A. baumannii A329, +0.06 μg/ml PB, 2nd experiment, read-out: MBC
A. baumannii J2 [15] = test: as above; format: cell-based, Acinetobacter baumannii; conditions: Acinetobacter baumannii, preliminary MBC
[16] = tested on: strains of A. baumannii and one strain of Acinetobacter sp.; test: MIC with sub-inhibitory concentrations (0.25x MIC) of polymyxin B, panel of Acinetobacter strains (Example 4); format: cell-based
A. baumannii ATCC 19606 = test: MIC without and with sub-inhibitory polymyxin B (Example 4); format: cell-based, Acinetobacter baumannii; conditions: A. baumannii ATCC 19606
A. baumannii A14 [17] = test: as above; format: cell-based, Acinetobacter baumannii; conditions: 1st experiment
A. baumannii A390 [18] = test: as above; format: cell-based, Acinetobacter baumannii; conditions: +0.06 μg/ml PB, 2nd experiment
A. baumannii A473 = test: Preliminary MBC without and with sub-inhibitory polymyxin B (Example 4); format: cell-based, Acinetobacter baumannii; conditions: Acinetobacter baumannii, A473, A. baumannii A473, +0.06 μg/ml PB, 2nd experiment, read-out: MBC
Method in brief: (§1)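 Plates were incubated for 18-20 hours at 37° C. MBC was taken as the lowest concentration giving colony growth ca. 90% below the positive control, typically where only single colonies or none appeared.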

A. baumannii A390 [19] = test: as above; format: cell-based, Acinetobacter baumannii; conditions: Acinetobacter baumannii, A390, A. baumannii A390, +0.06 μg/ml PB, 2nd experiment, read-out: MBC
Method in brief: as §1

A. baumannii A14 [20] = test: as above; format: cell-based, Acinetobacter baumannii; conditions: A. baumannii A14, +0.06 μg/ml PB, 2nd experiment
Method in brief: as §1

A. baumannii NCTC 13301 [21] = test: as above; format: cell-based, Acinetobacter baumannii; conditions: Acinetobacter baumannii
Method in brief: as §1

[22] = A. baumannii A14, +0.06 μg/ml PB

Work on Cc1c(-c2cc(F)c(N)cc2F)ccn2c(=O)c(C(=O)O)cc(C3CC3)c12 [Compound 2, 8-(4-amino-2,5-difluorophenyl)-1-cyclopropyl-9-methyl-4-oxo-4H-quinolizine-3-carboxylic acid] yielded an MBC (A. baumannii A489 [1]; A489, A. baumannii A489, +[…] PB, 2nd experiment, read-out: MBC) of at most 0.03 µg/mL, an MBC (A. baumannii A489 [1]; A489, read-out: MBC +[…] PB, A. baumannii A489, +[…] polymyxin B, 1st experiment) of at most 0.03 µg/mL and an MBC (A. baumannii A472 [2]; A472, A. baumannii A472, +[…] PB, 2nd experiment, read-out: MBC) of at most 0.03 µg/mL. The MBC (A. baumannii A472 [2]; A472, read-out: MBC +[…] PB, A. baumannii A472, +[…] polymyxin B, 1st experiment) was at most 0.03 µg/mL, the “MBC +0.06 μg/ml PB” value (A. baumannii A14 [3]) was at most 0.03 µg/mL and the “MIC without PB/MIC + PB” value (A. baumannii A401 [4]; A baumannii A 401, ratio, PB 0.06 μg/ml, 1st experiment) was at least 128. The MIC (A. baumannii A401 [4]; A401, A baumannii A 401, +0.06 μg/ml PB, 2nd experiment, read-out: MIC) was at most 0.03 µg/mL, the MIC (A. baumannii A401 [4]; A401, read-out: MIC +0.06 μg/ml PB, A baumannii A 401, +0.06 μg/ml polymyxin B, 1st experiment) was at most 0.03 µg/mL and the “MIC without PB/MIC + PB” value (A. baumannii A329 [5]) was 16. For the same compound, the “MIC without PB/MIC + PB” value (A. baumannii NCTC 13301 [6]; A. baumannii NCTC 13301) was at least 512, the MIC (A. baumannii NCTC 13301 [6]; Acinetobacter baumannii, NCTC13301, A. baumannii NCTC 13301, read-out: MIC) was at most 0.03 µg/mL and the “MIC without PB/MIC + PB” value (A. baumannii A489 [7]; +[…] PB, 2nd experiment) was at least 128. The “MIC without PB/MIC + PB” value (A. baumannii A489 [7]; ratio, PB […], 1st experiment) was at least 64, the MIC (A. baumannii A489 [7]; A489, A. baumannii A489, +[…] PB, 2nd experiment, read-out: MIC) was at most 0.03 µg/mL and the MIC (A. baumannii A489 [7]; A489, read-out: MIC +[…] PB, A. baumannii A489, +[…] polymyxin B, 1st experiment) was at most 0.03 µg/mL. For the same compound, the “MIC without PB/MIC + PB” value (A. baumannii A472 [8]; A. baumannii A472, ratio, PB […], 1st experiment) was at least 128, the MIC (A. baumannii A472 [8]; A472, A. baumannii A472, +[…] PB, 2nd experiment, read-out: MIC) was at most 0.03 µg/mL and the MIC (A. baumannii A472 [8]; A472, read-out: MIC +[…] PB, A. baumannii A472, +[…] polymyxin B, 1st experiment) was at most 0.03 µg/mL. For the same compound, the MIC (A. baumannii A14 [9]; [22]) was 0.06 µg/mL (≈ 0.162 µM), the “MIC without PB/MIC + PB” value (A. baumannii A14 [9]; [22]) was 256 and the MIC (A. baumannii A14 [9]; Acinetobacter baumannii, A14, A. baumannii A14, without PB, read-out: MIC) was 16 µg/mL (≈ 43.2 µM). The “MIC without PB/MIC + PB” value (A. baumannii J2 [10]; +[…] PB, 2nd experiment) was at least 128, the “MIC without PB/MIC + PB” value (A. baumannii J2 [10]; ratio, PB […], 1st experiment) was at least 128 and the MIC (A. baumannii J2 [10]; J2, A. baumannii J2, +[…] PB, 2nd experiment, read-out: MIC) was at most 0.03 µg/mL. For the same compound, the MIC (A. baumannii J2 [10]; J2, read-out: MIC +[…] PB, A. baumannii J2, +[…] polymyxin B, 1st experiment) was at most 0.03 µg/mL, the “MIC without PB/MIC + PB” value ([11]; Acinetobacter spp. H064200250 (OXA51), +[…] PB, 2nd experiment) was at least 128 and the “MIC without PB/MIC + PB” value ([11]; Acinetobacter spp. H064200250, ratio, PB […], 1st experiment) was at least 128. For the same compound, the MIC ([11]; Acinetobacter spp. H064200250 (OXA51), +[…] PB, 2nd experiment, read-out: MIC) was at most 0.03 µg/mL, the MIC ([11]; read-out: MIC +[…] PB, Acinetobacter spp. H064200250, +[…] polymyxin B, 1st experiment) was at most 0.03 µg/mL and the “MIC without PB/MIC + PB” value (A. baumannii NCTC 13301 [12]; A. baumannii NCTC 13301, ratio, PB […], 1st experiment) was at least 512. For the same compound, the MIC (A. baumannii NCTC 13301 [12]; Acinetobacter baumannii, NCTC13301, read-out: MIC +[…] PB) was at most 0.03 µg/mL, the MBC (A. baumannii A401 [13]; A401, A baumannii A 401, +0.06 μg/ml PB, 2nd experiment, read-out: MBC) was at most 0.03 µg/mL and the MBC (A. baumannii A401 [13]; A401, read-out: MBC +0.06 μg/ml PB, A baumannii A 401, +0.06 μg/ml polymyxin B, 1st experiment) was at most 0.03 µg/mL. The MBC (A. baumannii A329 [14]) was 0.5 µg/mL (≈ 1.35 µM), the MBC (A. baumannii J2 [15]; J2, A. baumannii J2, +[…] PB, 2nd experiment, read-out: MBC) was at most 0.03 µg/mL and the MBC (A. baumannii J2 [15]; J2, read-out: MBC +[…] PB, A. baumannii J2, +[…] polymyxin B, 1st experiment) was at most 0.03 µg/mL. For the same compound, the “MIC range with PB (0.25x MIC) Oct. 1, 2008 n = 8” value ([16]; 1st experiment, […] polymyxin B, ATCC 19606, A329, A390 and A473 not taken) was at most 0.03 to 1 µg/mL, the “MIC range with PB (0.25x MIC) Oct. 14, 2008 n = 11” value ([16]; 2nd experiment, 0.06 μg/ml polymyxin B, all strains except the ATCC strain) was at most 0.03 to 0.5 µg/mL and the “MIC without PB/MIC + PB” value (A. baumannii ATCC 19606; +0.06 μg/ml PB, 2nd experiment) was at least 4. The “MIC without PB/MIC + PB” value (A. baumannii ATCC 19606; ratio, PB 0.06 μg/ml, 1st experiment) was at least 1, the “MIC +0.06 μg/ml PB” value (A. baumannii A14 [17]; +0.06 μg/ml polymyxin B) was at most 0.03 µg/mL and the MIC (A. baumannii A14 [17]; Acinetobacter baumannii, 24 h, without polymyxin B, read-out: MIC without PB) was 16 µg/mL (≈ 43.2 µM). The “MIC without PB/MIC + PB” value (A. baumannii A14 [17]; ratio, PB 0.06 μg/ml) was at least 512, the “MIC without PB/MIC + PB” value (A. baumannii A390 [18]; A. baumannii A390) was at least 512 and the MIC (A. baumannii A390 [18]; Acinetobacter baumannii, A390, A. baumannii A390, read-out: MIC) was at most 0.03 µg/mL. For the same compound, the MBC (A. baumannii A473) was 0.125 µg/mL (≈ 0.338 µM), the MBC (A. baumannii A390 [19]) was 0.06 µg/mL (≈ 0.162 µM) and the MBC (A. baumannii A14 [20]) was 0.06 µg/mL (≈ 0.162 µM). The MBC (A. baumannii NCTC 13301 [21]; NCTC13301, A. baumannii NCTC 13301, +[…] PB, preliminary MBC, 2nd experiment, read-out: MBC) was at most 0.03 µg/mL and the MBC (A. baumannii NCTC 13301 [21]; NCTC13301, read-out: MBC +[…] PB) was at most 0.03 µg/mL.
